Test results as given in publication PMC11074326, “A Toxoplasma gondii O-glycosyltransferase that modulates bradyzoite cyst wall rigidity is distinct from host homologues” (Nature Communications, 2024).

Biological target: T1, TxgGalNAc-T3 (Toxoplasma gondii, UniProt A0A125YMZ8)
T1 construct: gene TGME49_318730; luminal region (catalytic and lectin domains), aa 74-635; secreted from Pichia pastoris SMD1168; His tag removed with TEV protease
Assay: X-ray crystal structure
Assay type: binding
Details: crystals with Mn2+, UDP-GalNAc-F and glycopeptide (CST1.4 or Muc5AC series), pH 9.5; active site, UDP coordinates Mn2+A; added as UDP-GalNAc-F, only UDP modelled

T1 sequence (A0A125YMZ8 entry or part of it): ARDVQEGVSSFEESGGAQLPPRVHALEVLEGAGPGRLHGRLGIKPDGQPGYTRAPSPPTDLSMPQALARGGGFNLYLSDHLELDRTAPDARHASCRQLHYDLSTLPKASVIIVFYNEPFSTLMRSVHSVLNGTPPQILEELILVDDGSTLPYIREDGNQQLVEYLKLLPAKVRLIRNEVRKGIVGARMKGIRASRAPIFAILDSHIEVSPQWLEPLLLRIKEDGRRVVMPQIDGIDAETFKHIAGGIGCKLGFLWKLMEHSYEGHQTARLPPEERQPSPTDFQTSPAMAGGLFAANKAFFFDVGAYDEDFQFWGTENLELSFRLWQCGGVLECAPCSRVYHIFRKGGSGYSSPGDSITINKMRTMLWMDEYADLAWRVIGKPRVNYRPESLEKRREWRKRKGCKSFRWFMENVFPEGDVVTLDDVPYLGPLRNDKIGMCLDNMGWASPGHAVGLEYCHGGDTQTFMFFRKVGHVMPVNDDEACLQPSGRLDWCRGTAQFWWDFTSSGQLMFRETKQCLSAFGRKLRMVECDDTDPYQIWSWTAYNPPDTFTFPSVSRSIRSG

Q: How did the X-ray crystal structure turn out when `O=c1ccn([C@@H]2O[C@H](COP(=O)(O)OP(=O)(O)O)[C@@H](O)[C@H]2O)c(=O)[nH]1` [UDP] was run?
A: The X-ray crystal structure was “We modeled UDP into the active site but did not include GalNAc-F”.
